# Measurements as given in ChEMBL document CHEMBL1129873, “PYRIDONE-BASED PEPTIDOMIMETIC INHIBITORS OF INTERLEUKIN-1-CONVERTING ENZYME (ICE)” (Bioorg Med Chem Lett, 1997).
# Molecular target: T1, Caspase-1 (Homo sapiens, UniProt P29466)
# T1 sequence (P29466 whole entry): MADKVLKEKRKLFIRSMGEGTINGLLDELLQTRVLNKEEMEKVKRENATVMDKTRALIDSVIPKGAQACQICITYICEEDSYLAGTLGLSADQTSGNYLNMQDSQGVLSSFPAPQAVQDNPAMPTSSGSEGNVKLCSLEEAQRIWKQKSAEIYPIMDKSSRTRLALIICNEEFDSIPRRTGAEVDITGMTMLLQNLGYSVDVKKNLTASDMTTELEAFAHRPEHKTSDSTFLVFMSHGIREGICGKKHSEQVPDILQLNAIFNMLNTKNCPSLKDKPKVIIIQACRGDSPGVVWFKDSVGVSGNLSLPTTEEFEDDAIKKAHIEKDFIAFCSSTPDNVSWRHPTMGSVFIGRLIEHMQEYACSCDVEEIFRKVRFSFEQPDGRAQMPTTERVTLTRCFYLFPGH
# Assay: Reversible inhibition of recombinant human IL-1 beta converting enzyme.
row,Ki,SMILES
1,1.1 nM,CC(=O)N[C@@H](Cc1ccc(O)cc1)C(=O)N[C@H](C(=O)N[C@@H](C)C(=O)N[C@@H](CC(=O)O)C(=O)COc1ccccc1)C(C)C
2,10 nM,O=C(O)C[C@H](NC(=O)Cn1c(Cc2ccccc2)ccc(NC(=O)c2cccc3ccccc23)c1=O)C(=O)COc1ccccc1
3,1.4 nM,CCC(C(=O)N[C@@H](CC(=O)O)C(=O)COc1ccccc1)n1cccc(NC(=O)c2ccc3ccccc3c2)c1=O (some centres not stated)
4,1.3 nM,O=C(O)C[C@H](NC(=O)C(c1ccccc1)n1cccc(NC(=O)c2ccc3ccccc3c2)c1=O)C(=O)COc1ccccc1 (some centres not stated)
5,7200 nM,CCCC(C(=O)N[C@@H](CC(=O)O)C(=O)COc1ccccc1)n1c(-c2ccccc2)ccc(NC(=O)c2cccc3ccccc23)c1=O (some centres not stated)
6,7.1 nM,COCC(C(=O)N[C@@H](CC(=O)O)C(=O)COc1ccccc1)n1cccc(NC(=O)c2ccc3ccccc3c2)c1=O (some centres not stated)
7,40 nM,CCc1ccc(NC(=O)c2cccc3ccccc23)c(=O)n1CC(=O)N[C@@H](CC(=O)O)C(=O)COc1ccccc1
8,2 nM,O=C(O)C[C@H](NC(=O)C(c1ccccn1)n1cccc(NC(=O)c2ccc3ccccc3c2)c1=O)C(=O)COc1ccccc1 (some centres not stated)
9,590 nM,Cc1ccc(NC(=O)OCc2ccccc2)c(=O)n1CC(=O)N[C@@H](CC(=O)O)C(=O)COc1ccccc1
10,2.2 nM,CCC(C(=O)N[C@@H](CC(=O)O)C(=O)COc1ccccc1)n1cccc(NC(=O)c2cccc3ccccc23)c1=O (some centres not stated)
11,0.15 nM,CC(C)[C@H](NC(=O)c1ccc2ccccc2c1)C(=O)N[C@@H](C)C(=O)NC(CC(=O)O)C(=O)COc1ccccc1 (some centres not stated)
12,1.8 nM,O=C(O)C[C@H](NC(=O)C(c1ccccc1)n1cccc(NC(=O)c2cccc3ccccc23)c1=O)C(=O)COc1ccccc1 (some centres not stated)
13,68 nM,CCCc1ccc(NC(=O)c2cccc3ccccc23)c(=O)n1CC(=O)N[C@@H](CC(=O)O)C(=O)COc1ccccc1
14,21 nM,CC(C)C(C(=O)N[C@@H](CC(=O)O)C(=O)COc1ccccc1)n1cccc(NC(=O)c2cccc3ccccc23)c1=O (some centres not stated)
15,530 nM,Cc1ccc(NC(=O)c2ccccc2)c(=O)n1CC(=O)N[C@@H](CC(=O)O)C(=O)COc1ccccc1
16,16 nM,CCCCc1ccc(NC(=O)c2cccc3ccccc23)c(=O)n1CC(=O)N[C@@H](CC(=O)O)C(=O)COc1ccccc1

row,Ki,SMILES
1,66 nM,O=C(O)C[C@H](NC(=O)Cn1c(-c2ccccc2)ncc(NC(=O)c2cccc3ccccc23)c1=O)C(=O)COc1ccccc1
2,46 nM,CCCCc1ncc(NC(=O)c2cccc3ccccc23)c(=O)n1CC(=O)N[C@@H](CC(=O)O)C(=O)COc1ccccc1
3,5.3 nM,CCCCC(C(=O)N[C@@H](CC(=O)O)C(=O)COc1ccccc1)n1cccc(NC(=O)c2cccc3ccccc23)c1=O (some centres not stated)
4,39 nM,O=C(O)C[C@H](NC(=O)Cn1cccc(NC(=O)c2cccc3ccccc23)c1=O)C(=O)COc1ccccc1
5,95 nM,Cc1ccc(NC(=O)c2cccc3ccccc23)c(=O)n1CC(=O)N[C@@H](CC(=O)O)C(=O)COc1ccccc1
6,160 nM,Cc1ccc(NC(=O)c2ccc3ccccc3c2)c(=O)n1CC(=O)N[C@@H](CC(=O)O)C(=O)COc1ccccc1
7,1.8 nM,CCCC(C(=O)N[C@@H](CC(=O)O)C(=O)COc1ccccc1)n1cccc(NC(=O)c2cccc3ccccc23)c1=O (some centres not stated)
8,14 nM,CC(C(=O)N[C@@H](CC(=O)O)C(=O)COc1ccccc1)n1cccc(NC(=O)c2ccc3ccccc3c2)c1=O (some centres not stated)
9,2200 nM,CCCC(C(=O)N[C@@H](CC(=O)O)C(=O)COc1ccccc1)n1c(C)ccc(NC(=O)c2ccc3ccccc3c2)c1=O (some centres not stated)
10,0.15 nM,CC(C)[C@H](NC(=O)c1ccc2ccccc2c1)C(=O)N1CCCC[C@H]1C(=O)NC(CC(=O)O)C(=O)COc1ccccc1 (some centres not stated)
11,40 nM,CCCCCCc1ccc(NC(=O)c2cccc3ccccc23)c(=O)n1CC(=O)N[C@@H](CC(=O)O)C(=O)COc1ccccc1
12,1.5 nM,C=CCC(C(=O)N[C@@H](CC(=O)O)C(=O)COc1ccccc1)n1cccc(NC(=O)c2ccc3ccccc3c2)c1=O (some centres not stated)
13,7 nM,CC(C(=O)N[C@@H](CC(=O)O)C(=O)COc1ccccc1)n1cccc(NC(=O)c2cccc3ccccc23)c1=O (some centres not stated)
14,45 nM,O=C(O)C[C@H](NC(=O)Cn1cccc(NC(=O)c2ccc3ccccc3c2)c1=O)C(=O)COc1ccccc1
15,25 nM,O=C(O)C[C@H](NC(=O)Cn1c(-c2ccccc2)ccc(NC(=O)c2cccc3ccccc23)c1=O)C(=O)COc1ccccc1
16,0.2 nM,CC(C)[C@H](NC(=O)c1ccc2ccccc2c1)C(=O)N1CCC[C@H]1C(=O)NC(CC(=O)O)C(=O)COc1ccccc1 (some centres not stated)
